Data: patent US20240189275A1, “METHODS FOR TREATING NON-ALCOHOLIC STEATOHEPATITIS WITH A SCD-1 INHIBITOR” (Lipidio Pharmaceuticals, Inc., priority 2021, published 2024)

Tests used:
rat SCD-1 = target: T1, rat SCD-1 (Rattus norvegicus, UniProt P07308); assay: Inhibition of SCD-1 activity in rat liver microsomes (13C-stearoyl-CoA to 13C-oleoyl-CoA, LC/MS/MS); format: biochemical; conditions: FIG. 1, IC50 value not given
T1 construct: Rat liver microsomes (RLM, BiolVT); tissue BiolVT; host or cells: rat liver microsomes
T1 sequence (P07308 1-358): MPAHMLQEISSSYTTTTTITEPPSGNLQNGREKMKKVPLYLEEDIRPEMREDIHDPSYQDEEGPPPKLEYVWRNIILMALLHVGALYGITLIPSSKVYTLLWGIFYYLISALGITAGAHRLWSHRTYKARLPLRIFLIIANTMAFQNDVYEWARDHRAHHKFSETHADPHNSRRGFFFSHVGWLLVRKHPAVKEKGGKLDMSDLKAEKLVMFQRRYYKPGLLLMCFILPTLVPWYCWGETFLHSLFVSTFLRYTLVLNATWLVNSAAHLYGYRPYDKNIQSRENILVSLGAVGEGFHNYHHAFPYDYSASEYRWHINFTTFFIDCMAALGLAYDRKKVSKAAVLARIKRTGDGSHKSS
Experimental: (§1) The ability of the compound to inhibit isolated SCD-1 enzyme activity can be evaluated in rat and human microsomes as described below (Oncotarget (2018), 9, 3-20). The compound is added as various concentrations to the liver microsomes and incubated for 5 minutes with ^13C-labelled Stearoyl CoA, which is the substrate for SCD-1. The activity of SCD-1 is then determined by the conversion of ^13C-Steoryl CoA to ^13C-Oleoyl CoA using an LC/MS/MS method. The ability of the compound to inhibit SCD-1 activity is expressed as an IC50.
(§2) Compound 25 is dissolved in DMSO to prepare a 10 mM stock solution.
(§3) Rat liver microsomes (RLM, BiolVT) and human liver microsome (HLM, InVitroCYP™ H-class, Pool of 25 donors BiolVT) solutions are prepared by adding the microsomes to 100 mM sodium phosphate, pH 7.4, at a protein concentration of 1.00 mg/mL.
(§4) Compound 25 stock solution is then added to the RLM and HLM solution at an initial concentration of 0.2 μM for direct inhibition. Each LM/Inhibitor Solution is added to blank LM solution to give 8 concentrations prepared by a 3-fold serial dilution. These diluted LM/inhibitor solutions are then added to a reaction buffer containing 2 mM NADH, 120 μM Coenzyme A, 2 mM ATP, 2 mM DTT, and 10 mM MgCl2 in 100 mM sodium phosphate, pH 7.4.
(§5) A Stearoyl-^13Cis-CoA solution in 10% methanol in water is prepared at a final concentration of 3.00 mM. […]

human SCD-1 = target: T2, human SCD-1 (Homo sapiens, UniProt O00767); assay: Inhibition of SCD-1 activity in human liver microsomes (13C-stearoyl-CoA to 13C-oleoyl-CoA, LC/MS/MS); format: biochemical; conditions: FIG. 1, IC50 value not given
T2 construct: human liver microsome (HLM, InVitroCYP™ H-class, Pool of 25 donors BiolVT); tissue BiolVT InVitroCYP™ H-class; host or cells: human liver microsomes, pool of 25 donors
T2 sequence (O00767 1-359): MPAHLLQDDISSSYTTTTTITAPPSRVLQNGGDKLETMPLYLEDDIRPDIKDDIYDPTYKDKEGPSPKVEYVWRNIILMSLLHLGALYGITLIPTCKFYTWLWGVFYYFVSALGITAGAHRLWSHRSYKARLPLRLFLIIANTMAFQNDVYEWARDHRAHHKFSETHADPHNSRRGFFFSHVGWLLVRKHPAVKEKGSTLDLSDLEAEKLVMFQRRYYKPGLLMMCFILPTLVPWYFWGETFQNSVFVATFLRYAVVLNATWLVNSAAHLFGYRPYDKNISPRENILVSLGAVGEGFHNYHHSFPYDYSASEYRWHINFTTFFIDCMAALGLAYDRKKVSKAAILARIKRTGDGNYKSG
Experimental: as §1, §2, §3, §4, §5

[1] = Body weight and body composition (EchoMRI) in GAN diet-induced, biopsy-confirmed mouse model of NASH; format: in vivo, mice; conditions: 12 weeks
Experimental: (§6) The effects of topical treatment of Compound 25 to 10% of the skin for 12 weeks were assessed in a diet-induced and biopsy-confirmed mouse model of NASH described in the literature (World Journal of Gastroenterology (2019), 25(33), 4904-4920). In this model, NASH is induced by maintaining mice on a high fat-high fructose diet (the so-called GAN [Novel Gubra Amylin] diet) for 33 weeks prior to drug administration. […] This biopsy is then compared to a post-drug treatment biopsy to assess changes in NAFLD activity and Fibrosis Stage. Qualitative scoring is completed with quantitative immunohistochemistry to assess effects on hepatic steatosis, inflammation (Galectin-3), fibrosis (Collagen 1a1 and Picro-Sirius Red Staining) and stellate cell activation (α-SMA). RNASeq was also performed on terminal liver samples from mice treated with placebo gel and compound 25 gel to examine key candidate genes involved in extracellular matrix formation (ECM) and fibrogenesis. Parametric (ANOVA) and non-parametric (Fisher's or Chi Square) statistics were used to analyze the data as appropriate.
SCD-1 inhibitor compounds can be tested in vivo in a rodent diet-induced model of biopsy-confirmed NASH. In this experiment, the NASH phenotype is induced by maintaining mice upon a GAN diet for 33 weeks prior to drug administration (BMC Gastroenterology (2020), 20(1), 210; World Journal of Gastroenterology (2019), 25(33), 4904-4920). […] In addition to pre- and post-treatment histological analyses, metabolic assessments such as body weight, body composition, food intake and clinical chemistries are measured during and following the 12-week study dosing period. […]
(§7) Animals and Diet: The Danish Animal Experiments Inspectorate approved all experiments which were conducted using internationally accepted principles for the use of laboratory animals under the personal license #2013-15-2934-00784. […] Mice were weighed daily during the study and body composition was measured by non-invasive EchoMRI scanning using EchoMRI-900 (EchoMRI, Houston, TX).

[2] = system: diet-induced and biopsy-confirmed mouse model of NASH; assay: Liver histology (NAS, fibrosis stage, quantitative histomorphometry) in GAN diet-induced, biopsy-confirmed mouse model of NASH; format: in vivo, mice; conditions: for number of mice with worsening (higher score) of Fibrosis Stage: placebo gel 7/16; for liver content (in mg) of α-SMA, antibody-stained sections / liver Galectin-3 content (in mg), antibody-stained sections / liver lipid content (hematoxylin and eosin-stained sections): week 12; for number of animals experiencing an improvement in NAS: topical, p<0.05 compared to placebo
Experimental: as §6
(§8) SCD-1 inhibitor compounds can be tested in vivo in a rodent diet-induced model of biopsy-confirmed NASH. In this experiment, the NASH phenotype is induced by maintaining mice upon a GAN diet for 33 weeks prior to drug administration (BMC Gastroenterology (2020), 20(1), 210; World Journal of Gastroenterology (2019), 25(33), 4904-4920). A biopsy is performed prior to drug treatment to eliminate any mice that have not developed the NASH phenotype and to mirror clinical trial design where liver biopsies prior to and at the end of treatment are compared. In addition to pre- and post-treatment histological analyses, metabolic assessments such as body weight, body composition, food intake and clinical chemistries are measured during and following the 12-week study dosing period.
(§9) Mice were dosed topically to 10% of the total BSA of the skin with either a placebo gel or a gel containing compound 25 (at a concentration of 0.05%, 0.25%, 0.75%, or 2.5%). (World Journal of Gastroenterology (2018), 24(2), 179-194).
(§10) Animals and Diet: The Danish Animal Experiments Inspectorate approved all experiments which were conducted using internationally accepted principles for the use of laboratory animals under the personal license #2013-15-2934-00784. B6.V-Lepob/JRj (ob/ob) mice (6 weeks old) were from Janvier Labs (Le Genest Saint Isle, France) and housed in a controlled environment (12h light/dark cycle, lights on at 3 AM, 21+2° C., humidity 50+10%). Each animal was identified by an implantable subcutaneous microchip (PetID Microchip, E-vet, Haderslev, Denmark). Mice had ad libitum access to tap water and the Gubra Amylin NASH diet [GAN diet; 40 kcal-% fat (of these 0% trans-fat and 46% saturated fatty acids by weight), 22% fructose, 10% sucrose, 2% cholesterol; D09100310, Research Diets]. Mice were maintained on the GAN diet for 33 weeks prior to study initiation to induce NASH and remained on the GAN diet during the 12 weeks of drug administration. Mice were weighed daily during the study and body composition was measured by non-invasive EchoMRI scanning using EchoMRI-900 (EchoMRI, Houston, TX).
Liver Biopsy: After 33 weeks of GAN diet feeding, mice were anesthetized with isoflurane (2%-3%, in 100% oxygen), a small abdominal incision in the midline was made, and the left lateral lobe of the liver was exposed. A cone-shaped wedge of liver tissue (50-100 mg) was excised from the distal part of the lobe. The cut surface of the liver was closed by electrosurgical bipolar coagulation using an electrosurgical unit (ERBE VIO® 100C, ERBE, Marietta, GA, United States). The liver was returned to the abdominal cavity, the abdominal wall was sutured and skin stapled. Carprofen (5 mg/kg, i.p.) was administered at the time of surgery and at post-operative day one and two. […]

[3] = system: diet-induced and biopsy-confirmed mouse model of NASH; assay: Terminal hepatic triglyceride content in mouse model of NASH; format: in vivo, mice; conditions: 2.5% gel, week 12; p<0.001
Experimental: as §8, §9
as §7, with “TX). […]” for “TX).”

[4] = system: diet-induced and biopsy-confirmed mouse model of NASH; assay: Plasma ALT and AST in mouse model of NASH; format: in vivo, mice; conditions: for plasma alanine transaminase (ALT) (units/L) / plasma aspartate transaminase (AST) (units/L): week 12
Experimental: as §8, §9, §10
Plasma Biochemistry Analysis: Blood samples are collected in heparinized tubes and plasma is separated and stored at −80° C. until analysis. Alanine aminotransferase and aspartate aminotransferase (FIG. 12) were measured using commercial kits (Roche Diagnostics) on the Cobas c 501 autoanalyzer according to the manufacturer's instructions.

[5] = system: liver genes involved in inflammation, fibrogenesis, extracellular matrix formation and NASH progression; assay: RNASeq of terminal liver samples (mRNA expression) in mouse model of NASH; format: in vivo, mice
Experimental: as §6, §8, §9, §10

[6] = 2.5% gel, topical to 10% of skin, p<0.001
[7] = 0.75% and 2.5% dose groups (group not specified), 16 animals per group, 12 weeks
[8] = conclusion, topical to 10% of BSA, dose not specified

SMILES: O=C(COc1ccc(CO)cc1)N1CC[C@H](Oc2ccccc2C(F)(F)F)C1 [Compound 25, (S)-2-(4-(hydroxymethyl)phenoxy)-1-(3-(2-(trifluoromethyl)phenoxy)pyrrolidin-1-yl)ethan-1-one]
- inhibition of rat SCD-1 activity (rat SCD-1): concentration-dependent inhibition
- inhibition of human SCD-1 activity (human SCD-1): concentration-dependent inhibition
- body adiposity (percent body weight) [1, 6]: significantly reduced
- body weight (percent baseline body weight) [1, 6]: significantly reduced
- total body weight or body fat ([1]; lower doses at which fibrosis changes were observed, topical): no or minimal effect
- number of mice with worsening (higher score) of Fibrosis Stage ([2]; 0.25% gel, 12 weeks): 2/16
- liver content (in mg) of α-SMA, antibody-stained sections ([2]; 0.25% gel, p<0.05): significantly reduced
- proportion of mice exhibiting any worsening of the fibrosis stage ([2]; 0.25%, 0.75% and 2.5% gel groups, 12 weeks, placebo almost 50%): 6-12%
- animals showing a higher NAS score [2, 7]: none
- animals with a lower NAS score [2, 7]: 15/16
- liver content of Collagen 1a1 (in mg), antibody-stained sections ([2]; 0.75% gel, 12 weeks, p<0.05): significant reduction
- liver content of Picro-Sirius Red (in mg) ([2]; 0.75% gel, 12 weeks, p<0.05): significantly reduced
- number of mice with worsening (higher score) of Fibrosis Stage ([2]; 0.75% gel, 12 weeks): 2/16
- number of animals experiencing an improvement in NAS ([2]; 0.75% gel, 12 weeks): significantly greater
- liver content (in mg) of α-SMA, antibody-stained sections ([2]; 0.75% gel, p<0.01): significantly reduced
- liver Galectin-3 content (in mg), antibody-stained sections ([2]; 0.75% gel, p<0.05): significantly reduced
- liver lipid content (hematoxylin and eosin-stained sections) ([2]; 0.75% gel, p<0.05): significantly reduced
- liver content of Picro-Sirius Red (in mg) ([2]; 2.5% gel, 12 weeks, p<0.001): significantly reduced
- liver content of Collagen 1a1 (in mg), antibody-stained sections ([2]; 2.5% gel, 12 weeks, p<0.01): significant reduction
- number of mice with worsening (higher score) of Fibrosis Stage ([2]; 2.5% gel, 12 weeks): 1/16
- number of animals experiencing an improvement in NAS ([2]; 2.5% gel, 12 weeks): significantly greater
- liver Galectin-3 content (in mg), antibody-stained sections ([2]; 2.5% gel, p<0.001): significantly reduced
- liver content (in mg) of α-SMA, antibody-stained sections ([2]; 2.5% gel, p<0.001): significantly reduced
- liver lipid content (hematoxylin and eosin-stained sections) ([2]; 2.5% gel, p<0.001): significantly reduced
- liver content of Collagen 1a1 (in mg), antibody-stained sections ([2]; all doses (0.05%, 0.25%, 0.75%, 2.5% gel), 12 weeks): clear trend in reduction
- multiple quantitative markers of collagen (Collagen 1a1 immunohistochemistry; PSR staining; Collagen 1a1, 3a1, 4a1 mRNA) ([2]; conclusion, dose not specified): decreased
- α-SMA expression (stellate cell activation) ([2]; conclusion, dose not specified): decreased
- fibrosis stage [2, 8]: prevented worsening
- hepatic steatosis [2, 8]: improved
- inflammation [2, 8]: decreased
- overall NAFLD Activity Score or NAS [2, 8]: improved
- liver triglyceride content [3]: significantly reduced
- plasma alanine transaminase (ALT) (units/L) ([4]; 0.75% gel): reduction
- plasma aspartate transaminase (AST) (units/L) ([4]; 0.75% gel): reduction
- plasma alanine transaminase (ALT) (units/L) ([4]; 2.5% gel): reduction
- plasma aspartate transaminase (AST) (units/L) ([4]; 2.5% gel): reduction
- serum ALT and AST ([4]; conclusion, after topical dosing, dose not specified): marked decrease
- liver Galectin-3 mRNA ([5]; 2.5% gel): Reduced
- liver mRNA expression of genes associated with NASH progression and poor prognosis ([5]; 2.5% gel, Aldh8a1, Aldh7a1, Annexin A2, CD36, CNBP, CIDEC, Cyclin D1, Fasn, Hsbp1, KIF6, Nfe212, Perilipin 2): significant regulation
- liver mRNA expression of genes involved in hepatic inflammation ([5]; 2.5% gel, Chemokine Ligand 2, Chemokine Ligand 5, Epithelial Cell Adhesion Protein, Cluster of Differentiation 68, Integrin X): significantly downregulated
- liver mRNA expression of genes involved in NASH fibrogenesis and extracellular matrix formation ([5]; 2.5% gel, Monocyte Chemoattractant Protein-1, Osteonectin, α-SMA, Collagen 1a1, Collagen 3a1, Collagen 4a1): significantly downregulated
- candidate genes whose expression may be predictive for poor outcomes like liver cirrhosis and cancer ([5]; conclusion, dose not specified): favorably regulated
